# Experimental data reported in publication PMC2810100 (Journal of medicinal chemistry, 2009).
# Key:
# CpIMPDH = settings: cited from earlier work
# recombinant CpIMPDH = target: T1, recombinant CpIMPDH (Cryptosporidium parvum, UniProt Q8T6T2); format: biochemical; settings: without BSA
# T1 sequence (Q8T6T2 1-400): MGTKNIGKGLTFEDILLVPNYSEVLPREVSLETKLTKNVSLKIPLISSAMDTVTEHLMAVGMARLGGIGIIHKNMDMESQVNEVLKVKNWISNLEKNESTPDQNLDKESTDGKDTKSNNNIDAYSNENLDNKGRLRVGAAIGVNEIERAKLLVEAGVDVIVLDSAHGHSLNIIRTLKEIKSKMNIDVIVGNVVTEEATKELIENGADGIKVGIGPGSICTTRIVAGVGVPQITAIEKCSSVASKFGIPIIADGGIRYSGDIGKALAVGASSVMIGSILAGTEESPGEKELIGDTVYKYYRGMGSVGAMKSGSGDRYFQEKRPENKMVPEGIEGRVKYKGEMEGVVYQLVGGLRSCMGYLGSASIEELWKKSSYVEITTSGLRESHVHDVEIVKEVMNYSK
Compound,Mode of inhibition with respect to 1 (IMP) (CpIMPDH),Mode of inhibition with respect to NAD+ (CpIMPDH),Fold more potent than the (S)-enantiomer (33) (recombinant CpIMPDH)
CC(Oc1ccccc1)C(=O)Nc1ccc(Cl)cc1 (stereo not drawn) [Compound 5],uncompetitive inhibition,noncompetitive (mixed) inhibition,–
"C[C@@H](Oc1ccnc2ccccc12)c1cn(-c2ccc(Cl)c(Cl)c2)nn1 [Compound 32, (R)-4-(1-(1-(3,4-dichlorophenyl)-1H-1,2,3-triazol-4-yl)ethoxy)quinoline]",–,–,~ 14 fold
